The experiment deals with APOE*3Leiden mice. The experiment in a line: Effects on lipid metabolism in vivo, APOE*3Leiden mice on Western-type diet. The note with it: female heterozygous APOE*3Leiden mice, oral admix to Western-type diet, plasma after 4 hour fast, delta = level at t=0 minus level at t=3, doses 565 (Group 2), 497 (Group 3), 1 (Group 4) mg/kg bw/d. On the procedure:
The invented compositions were tested in an animal model as described below.
Female heterozygous APOE*3Leiden mice was used, and housed during the experiment in macrolon cages (three or four mice per cage), in clean-conventional animal rooms (relative humidity 50-60%, temperature ˜21° C., light cycle 7 am to 7 pm). Individual animals were marked by ear punch-holes. Mice were supplied with food and acidified tap water ad libitum.
The mice received a semi-synthetic modified Western-type diet (WTD) as described by Nishina et al (J Lipid Res 1990; 31: 859), containing cholesterol (0.25% w/w, final concentration) and 15% cacaobutter.
All test compounds were administered orally as admix to the Western-type diet. The lyophilized diet chunks were stored in vacuum bags in the dark in an alarm-secured −20° C. room. The diets on the cages of the mice were changed twice a week.
APOE*3Leiden mice were put on a semi-synthetic Western-type diet (WTD, 15% cocoa butter, 40% sucrose and 0.25% cholesterol; all w/w). After a 4 weeks run-in period low-responder mice were removed from the study and the remaining mice were sub-divided into five groups of 10 mice each, matched for plasma cholesterol, triglycerides, free fatty acids and age (t=0) […]
After 3 weeks of treatment (t=3 weeks) blood samples were taken after 4 hour-fast period and plasma total cholesterol (TC), total triglycerides (TG) were measured. […]

As for `CC(C)OC(=O)C(C)(C)Oc1ccc(C(=O)c2ccc(Cl)cc2)cc1` [Group 4, Fenofibrate], the “Delta cholesterol plasma levels (delta TC) after treatment period of 3 weeks, Mean (delta TC)” value was found to be 4.71 and the “Delta triglyceride plasma levels (delta TG) after treatment period of 3 weeks, Mean (delta TG)” value turned out to be 1.16.

These data come from US20100266681A1, “FATTY ACID ALCOHOLS” (priority 2006, published 2010).
